The test system of assay [1] is TNF. The assay is described as follows: Serum TNF in endotoxemic mice (ELISA). In kind it is in vivo, Balb/C mice. The conditions noted are these: 2 hours after LPS. How it is done: Endotoxin shock. Mice were injected with endotoxin (Escherichia coli lipopolysaccharide, LPS 0111:B4; Sigma Chemical Co, St. Louis, Mo.) that was dissolved in sterile pyrogen-free saline at stock concentrations of 10 mg/ml. LPS solutions were sonicated for 20 min immediately prior to use for each experiment. Mice received an LD75 dose of LPS (5 mg/kg, i.p.). Blood was collected at different times after LPS administration, allowed to clot for 2 h at room temperature, then centrifuged for 20 min at 1,500 g. Serum samples were stored at […] prior to analysis. Mortality was recorded for up to 3 weeks after injection to ensure that no additional late deaths occurred.
(§1) Cytokine measurements. TNF concentration in mouse serum and in conditioned media from RAW 264.7 cell cultures was measured by ELISA (minimum detectable concentration=10 pg/ml). […] Mouse serum IL-6 and IL-1β levels were measured using ELISA kits (R&D Systems, Inc., Minneapolis, Minn.). HMGB-1 was analyzed by western blot as previously described by Wang et al, 1999. […] Protein was electroblotting to Immun-blot PVDF membrane (Bio-rad, Hercules Calif.) and HMGB-1 was analyzed using polyclonal 241 antibody and secondary anti-rabbit horseradish peroxidase (Amersham, Pitscataway, N.J.). Standard curves were constructed using r-HMGB-1, and the intensity of the 30 kD band analyzed by densitometry. […]

Assay [2] has as its system lethal sepsis caused by peritonitis (cecal perforation). The assay can be described thus: Cecal ligation and puncture (CLP) peritonitis/sepsis: survival. The assay is classed as in vivo, Balb/C mice. On the procedure:
Animal Experiments. Male 6-8 week old Balb/C mice (20-25 g) were purchased from Harlen Sprague-Dawley (Indianapolis, Ind.) and allowed to acclimate for 7 days housed at 25° C. on a 12 h light/dark cycle. Animals were randomly grouped (10 mice per group) and assigned to a specific experiment. All animal experiments were performed in accordance with the National Institutes of Health Guidelines under protocols approved by the Institutional Animal Care and Use Committee of North Shore University Hospital and New York University Medical School.
Cecal ligation and puncture (CLP). Cecal ligation and puncture (CLP) was performed as described by (Wichterman et al., J. Surg. Res. (1980) 29(2):189-201). Briefly, mice were anesthetized with 20 mg/ml xylazine intramuscularly at a dose of […], a midline incision was performed, and the cecum was isolated. A 6-0 prolene suture ligature was placed at a level 5.0 mm from the cecal tip away from the ileocecal valve. The ligated cecal stump was then punctured once with a 22-gauge needle, and stool extruded (1 mm) to ascertain patency of the puncture site. […] Mortality was recorded for up to 1 week after the procedure; survivors were followed for 3 weeks to ensure no late mortalities had occurred. […]

Assay [3] deals with HMGB-1. The assay can be described thus: HMGB-1 release from LPS-stimulated RAW264.7 macrophage cultures (western blot). In kind it is cell-based, murine. How it is done:
Cell Culture. BALB/c murine macrophage-like RAW 264.7 cells obtained from the American Type Culture Collection (ATCC Number TIB-71, ATCC, Rockville, Mass.) (61), were cultured in RPMI 1640 (Life Technologies, Grand Island, N.Y.) supplemented with 10% heat inactivated fetal bovine serum (Gemini, Calabasas, Calif.), 2 mM glutamine (Cat. # 25030-149, Gibco BRL, Rockville, Mass.) and antibiotic-antimycotic mix (Cat. # 15240-062, Gibco BRL, Rockville, Mass.) in a humidified incubator with 5% CO2. Cells were mechanically removed and resuspended in serum-free Opti-MEM I medium (Life Technology, Grand Island, N.Y.) to perform experiments at 75% confluence.
as §1
For orientation: A western blot detects proteins with antibodies after separation by electrophoresis.

The values below come from patent publication US6943190B2, “Method of using pyruvate and/or its derivatives for the treatment of cytokine-mediated inflammatory conditions” (University of Pittsburgh-of the Commonwealth System of …, priority 2001, dated 2005).

Molecules are shown by their SMILES.

Turning to `CCOC(=O)C(C)=O` [ethyl pyruvate], the “serum TNF” value in assay [1] (pretreatment 40 mg/kg 30 min before LPS 5 mg/kg i.p., vehicle printed 17+/−4, P<0.05) is on record as 39+−6 ng TNF/ml. In addition, the “release of serum TNF (in words)” value in assay [1] (pretreatment 40 mg/kg) is recorded as “significantly attenuates the release of serum TNF”. The survival in assay [2] (40 mg/kg i.p. beginning 24 hours after onset of peritonitis, three weeks of monitoring, vehicle 5/17, P<0.005) was 14/17. In assay [2] (lower ethyl pyruvate doses, beginning 24 hours after onset of peritonitis), the protection against death entry is given as “failed to confer significant protection against death”. The “total intracellular (cell associated) HMGB1 protein concentration” value in assay [3] (RAW264.7 cells treated with 1, 5 or 10 mM, 10 or 20 h) is “did not significantly influence total intracellular HMGB1 protein concentration”. Further, the “LPS-induced HMGB-1 release” value in assay [3] (conditioned media, overnight (24 hrs) endotoxin exposure) is reported as “significantly prevented LPS-induced HMGB-1 release in a concentration dependent manner”.
